The record followed here is ChEMBL document CHEMBL5465560, “Selectivity Literature for EUbOPEN Chemogenomic Library” (2024).

For assay [1], the target named is T1, Aurora kinase A (Homo sapiens) (UniProt O14965).
T1 sequence (whole entry): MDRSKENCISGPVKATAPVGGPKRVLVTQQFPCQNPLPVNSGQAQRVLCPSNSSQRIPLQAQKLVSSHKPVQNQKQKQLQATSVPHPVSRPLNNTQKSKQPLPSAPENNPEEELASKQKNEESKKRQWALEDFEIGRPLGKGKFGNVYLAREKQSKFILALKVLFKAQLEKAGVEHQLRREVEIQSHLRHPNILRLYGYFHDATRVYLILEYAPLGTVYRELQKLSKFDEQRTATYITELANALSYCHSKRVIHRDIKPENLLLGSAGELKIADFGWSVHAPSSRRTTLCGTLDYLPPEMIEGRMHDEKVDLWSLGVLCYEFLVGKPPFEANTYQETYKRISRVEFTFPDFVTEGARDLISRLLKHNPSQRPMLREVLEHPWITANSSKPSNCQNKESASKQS
As to the kind of experiment: Selectivity interaction (Millipore kinase profiler) EUB0000124b STK6. Particulars: at 10 µM.

For assay [2], the target named is MAP/microtubule affinity-regulating kinase 3 (Homo sapiens) (UniProt P27448). Description: Selectivity interaction (KinomeScan (DiscoverX)) EUB0000655a MARK3. Conditions: at 10 µM.
Assay [3] has as its target T2, Serine/threonine-protein kinase Nek1 (Homo sapiens) (UniProt Q96PY6).
T2 sequence (whole entry): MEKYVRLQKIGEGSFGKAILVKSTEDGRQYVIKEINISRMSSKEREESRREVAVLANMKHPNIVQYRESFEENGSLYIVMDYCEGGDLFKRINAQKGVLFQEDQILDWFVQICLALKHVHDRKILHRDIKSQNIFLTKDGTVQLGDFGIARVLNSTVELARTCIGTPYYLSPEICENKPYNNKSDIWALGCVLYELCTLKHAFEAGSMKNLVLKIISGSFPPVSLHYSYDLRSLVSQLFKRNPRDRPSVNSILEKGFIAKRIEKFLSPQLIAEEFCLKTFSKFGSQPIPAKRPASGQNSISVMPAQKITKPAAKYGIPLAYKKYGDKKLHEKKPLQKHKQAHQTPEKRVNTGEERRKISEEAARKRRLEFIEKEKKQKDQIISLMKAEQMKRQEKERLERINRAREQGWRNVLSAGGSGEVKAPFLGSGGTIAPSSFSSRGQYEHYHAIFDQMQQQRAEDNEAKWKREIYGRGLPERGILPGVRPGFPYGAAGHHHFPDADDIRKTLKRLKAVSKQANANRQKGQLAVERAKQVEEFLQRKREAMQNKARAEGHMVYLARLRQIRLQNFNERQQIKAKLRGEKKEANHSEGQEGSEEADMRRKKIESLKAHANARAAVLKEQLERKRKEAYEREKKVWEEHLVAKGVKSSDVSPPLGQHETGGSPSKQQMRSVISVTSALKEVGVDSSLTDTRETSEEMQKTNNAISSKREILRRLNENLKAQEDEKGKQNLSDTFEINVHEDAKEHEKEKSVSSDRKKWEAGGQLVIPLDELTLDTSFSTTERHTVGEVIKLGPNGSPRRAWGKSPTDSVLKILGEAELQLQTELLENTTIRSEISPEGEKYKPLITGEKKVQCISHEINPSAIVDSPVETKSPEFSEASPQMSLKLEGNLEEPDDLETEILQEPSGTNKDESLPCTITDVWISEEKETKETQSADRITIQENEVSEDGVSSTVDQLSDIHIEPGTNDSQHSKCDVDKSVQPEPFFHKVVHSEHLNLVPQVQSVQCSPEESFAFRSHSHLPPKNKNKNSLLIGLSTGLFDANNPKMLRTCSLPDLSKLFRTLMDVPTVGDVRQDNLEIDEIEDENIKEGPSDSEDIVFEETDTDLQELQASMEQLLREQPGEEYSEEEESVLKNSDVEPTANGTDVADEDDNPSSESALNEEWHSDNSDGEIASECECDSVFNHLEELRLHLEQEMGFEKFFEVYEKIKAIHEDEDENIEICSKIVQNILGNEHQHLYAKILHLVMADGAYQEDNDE
Description: Selectivity interaction (Kinase screening (Nanosyn)) EUB0000604a NEK1.

The target of assay [4] is RAC-gamma serine/threonine-protein kinase (Homo sapiens, UniProt Q9Y243). Description: Selectivity interaction (Kinase panel (Invitrogen)) EUB0000639a AKT3. Particulars: at 200 nM.
For assay [5], the system named is Tyrosine-protein kinase ABL1 (Homo sapiens), P00519 [Q252H]. Description: (§1) Selectivity interaction (KinomeScan (DiscoverX)) EUB0000618a ABL1. Conditions: at 10 µM.
Assay [6] concerns Tyrosine-protein kinase ABL1 (Homo sapiens), P00519 [H396P]. Described as §1. Conditions: at 10 µM.
In assay [7] the target is Tyrosine-protein kinase ABL1 (Homo sapiens, UniProt P00519). The description is as §1. Particulars: at 10 µM.
In assay [8] the test system is Tyrosine-protein kinase ABL1 (Homo sapiens), P00519 [Y253F]. The assay is described as §1. Particulars: at 10 µM.
Assay [9] concerns Tyrosine-protein kinase ABL1 (Homo sapiens), P00519 [T315I]. The assay is described as §1. Conditions: at 10 µM.
In assay [10] the test system is Tyrosine-protein kinase ABL1 (Homo sapiens), P00519 [M351T]. The description is as §1. Particulars: at 10 µM.
In assay [11] the test system is Tyrosine-protein kinase ABL1 (Homo sapiens), P00519 [F317L]. The assay is described as §1. Conditions: at 10 µM.
Assay [12] deals with Tyrosine-protein kinase ABL1 (Homo sapiens), P00519 [F317I]. Described as §1. Conditions: at 10 µM.
Assay [13] has as its system Tyrosine-protein kinase ABL1 (Homo sapiens), P00519 [E255K]. Described as §1. Particulars: at 10 µM.

Structures are written as SMILES.

Sequence of RAC-gamma serine/threonine-protein kinase (Q9Y243 whole entry): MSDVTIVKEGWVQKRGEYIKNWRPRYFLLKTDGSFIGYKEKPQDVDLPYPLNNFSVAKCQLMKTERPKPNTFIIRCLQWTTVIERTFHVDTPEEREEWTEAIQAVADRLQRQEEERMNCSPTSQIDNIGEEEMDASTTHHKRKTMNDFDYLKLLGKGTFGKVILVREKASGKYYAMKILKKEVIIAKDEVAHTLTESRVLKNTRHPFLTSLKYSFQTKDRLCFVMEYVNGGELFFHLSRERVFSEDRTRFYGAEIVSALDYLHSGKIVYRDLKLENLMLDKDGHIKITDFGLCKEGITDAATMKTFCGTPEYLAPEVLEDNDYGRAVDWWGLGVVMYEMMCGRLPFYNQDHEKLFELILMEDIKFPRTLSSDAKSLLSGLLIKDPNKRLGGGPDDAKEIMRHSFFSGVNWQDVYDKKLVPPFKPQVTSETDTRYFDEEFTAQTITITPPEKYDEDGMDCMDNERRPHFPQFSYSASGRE
Sequence of MAP/microtubule affinity-regulating kinase 3 (Homo sapiens) (P27448 whole entry, looked up): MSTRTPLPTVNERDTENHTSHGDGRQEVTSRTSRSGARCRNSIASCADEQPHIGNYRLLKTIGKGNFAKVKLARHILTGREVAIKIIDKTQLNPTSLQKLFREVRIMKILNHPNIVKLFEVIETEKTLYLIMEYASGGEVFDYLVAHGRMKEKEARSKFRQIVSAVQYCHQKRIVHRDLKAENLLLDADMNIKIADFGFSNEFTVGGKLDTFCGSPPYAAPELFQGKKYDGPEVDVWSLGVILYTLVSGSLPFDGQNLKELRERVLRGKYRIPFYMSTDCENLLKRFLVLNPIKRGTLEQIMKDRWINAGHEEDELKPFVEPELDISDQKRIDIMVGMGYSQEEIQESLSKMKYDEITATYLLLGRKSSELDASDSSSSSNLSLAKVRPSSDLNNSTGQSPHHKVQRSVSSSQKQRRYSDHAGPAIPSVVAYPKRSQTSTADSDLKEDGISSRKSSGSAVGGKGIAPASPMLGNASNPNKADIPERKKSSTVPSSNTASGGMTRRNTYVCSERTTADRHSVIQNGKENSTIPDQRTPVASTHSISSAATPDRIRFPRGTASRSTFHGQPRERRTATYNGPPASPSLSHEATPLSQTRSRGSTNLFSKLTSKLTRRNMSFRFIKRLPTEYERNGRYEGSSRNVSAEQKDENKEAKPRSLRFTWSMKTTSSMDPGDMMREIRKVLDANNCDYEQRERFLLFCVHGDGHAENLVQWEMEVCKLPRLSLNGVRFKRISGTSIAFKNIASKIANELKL

Compound `CC(=O)Nc1cccc(-n2c(=O)n(C3CC3)c(=O)c3c(Nc4ccc(I)cc4F)n(C)c(=O)c(C)c32)c1` yielded a % of control in [1] of 124%.
Take `CN(C)CCOc1ccc(-c2nc(-c3ccncc3)c(-c3ccc4c(c3)CC/C4=N\O)[nH]2)cc1`: the % of control in [2] was 95%.
As to `Cc1cnc(Nc2ccc(F)cc2Cl)nc1-c1c[nH]c(C(=O)N[C@H](CO)c2cccc(Cl)c2)c1`, in assay [3], the % of inhibition was 6%.
`CC[C@@H]1[C@H](F)C(=O)N[C@@H]1COc1nccc2cc(C(N)=O)c(OC)cc12` [ZIMLOVISERTIB] displayed a % of inhibition in [4] of 1.08%.
Turning to `O[C@H]1CC[C@H](Nc2ncc3nc(Nc4c(F)cc(F)cc4F)n([C@H]4CCOC4)c3n2)CC1`, the % of control was 47% in [5]; 13% in assay [6]; 39% in assay [7]; 29% in assay [8]; 100% in assay [9]; 38% in assay [10]. Moreover, the % of control amounted to 55% in assay [11], 51% in assay [12] and 31% in assay [13].
